Tests used:
Format in all cases: cell-based, human
CDK1 = experiment: immunoblotting of G2/M-arrested cells incubated with CDK1 inhibitor; settings: T47D
Description: To detect expression of PBK/TOPK (WT, T9A, KD, T9A/KD), p47, p97 or PP1α proteins, immunoblottings were performed according to previous report (Park et al., 2006). Briefly, cells were lysed in lysis buffer (50 mM Tris-HCl, pH 8.0/150 mM NaCl/0.5% NP-40) followed by homogenization and incubation on ice for 30 minutes, only soluble fractions were separated from cell debris by centrifugation. After SDS-PAGE (sodium dodecyl sulfate polyacrylamide gel electrophoresis), the proteins were blotted onto nitrocellulose membrane (GE Healthcare, Buckinghamshire, United Kingdom), incubated with the corresponding antibodies, and visualized using an ECL detection kit (GE Healthcare). To collect the mitotic cells, the present inventors employed a “mitotic shake-off” method as described previously (Dechat T et al., EMBO J. 17: 4887-902 (1998)). A protein-protein interaction was examined by immunoprecipitation after co-transfection with above described constructs of interest to COS-7 cells using the FuGene6 reagent (Roche) as described previously (Shimo A et al., Cancer Sci 98: 174-81 (2007)) except using an anti-6×His antibody (Santa Cruz Biotechnology) to precipitated p97/VCP-myc-6×His protein. After washing 5 times with lysis buffer, immunocomplexes were loaded on a SDS-PAGE gel and immunoblotted as described above.
An active recombinant PBK/TOPK protein was purchased from Invitrogen (Carlsbad, Calif.), and recombinant proteins of Histone H3 and Protein Phosohatase 1-alpha (PP1α were from Upstate Biotechnology (Lake Placidy, N.Y.). Cyclin-dependent kinase-1 (CDK1 kinase) (cdc2/cyclin B1) and lambda protein phosphatase (λPPase) were from New England Biolabs (Ipswich, Mass.). The glutathione S-transferase (GST)-tagged PBK/TOPK (GST-PBK/TOPK) protein was expressed in Escherichia coli and purified with Glutathione Sepharose 4B beads (GE Heath care, Buckinghamshire, United Kingdom) according to the previous report (Lin et al., 2007). […]

A7322 = experiment: semi-quantitative RT-PCR of A7322 after siRNA vector transfection; settings: BT-549 and BT-474 cells; compared with psiU6BX-Mock
Description: Inventors established a vector-based RNAi (RNA interference) expression system using psiU6BX3.0 siRNA expression vector as described previously (Taniuchi K et al. Cancer Res., 65:105-112. 2005.). siRNA expression vectors against A7322 (psiU6BX3.0-A7322), F3374V1 (psiU6BX3.0-F3374V1), EGFP (psiU6BX3.0-EGFP), Scramble (psiU6BX3.0-SCR) and Mock (psiU6BX3.0-Mock) were prepared by cloning of double-stranded oligonucleotides into the BbsI site of the psiU6BX3.0 vector. The target sequences of synthetic oligonucleotides for siRNA were as follows;
(§1) Human breast cancer cells-lines, BT-549 and BT-474 (for A7322) and T47D and HBC4 (for F3374), were plated onto 10-cm dishes (2×10^6 cells/dish) and transfected with 8 μg each of psiU6BX3.0-Mock (without insertion), psiU6BX3.0-A7322 (#2, #3 and a mismatch construct (m#3) including three-base substitutions in #3), psiU6BX3.0-F3374V1 (#1, and #4), psiU6BX3.0-EGFP, psiU6BX3.0-SCR using FuGENE6 reagent (Roche) as described above. Inventors selected the psiU6BX3.0-introduced BT-549, BT-474, T47D and HBC4, with medium containing 0.2 mg/ml or 1 mg/ml of neomycin (Geneticin, Gibco BRL, Carlsbad, Calif.), respectively. […] To evaluate an effect of siRNAs, total RNAs were extracted from the cells at 4-day incubation with neomycin, and then the knockdown effect of siRNAs was examined by a semi-quantitative RT-PCR using specific primer sets;

BT-549 and BT-474 cells = experiment: colony-formation and MTT assays, A7322 siRNA
Description: as §1
Transfectants expressing siRNA were grown for 4 weeks in selective media containing neomycin, then fixed with 4% paraformaldehyde for 15 min before staining with Giemsa's solution (Merck, Whitehouse Station, N.J.) to assess colony number. To quantify cell viability, MTT assays were performed with cell counting kit-8 4 days after transfection according to manufacturer's recommendation (Wako, Osaka, Japan). Absorbance at 570 nm wavelength was measured with a Microplate Reader 550 (Bio-Rad). […]

PBK/TOPK [1] = experiment: western blot of PBK/TOPK phosphorylation after okadaic acid; settings: T47D
Description: Wild-type and kinase-dead PBK/TOPK proteins were exogenously expressed by transfection into T47D cell using pCAGGS-nHA expression vector. Whole cell lysates were harvested 48 h after the transfection. The cells were lysed in the cell lysis buffer as described above. The following procedures are the same as described above except that anti-HA rat high-affinity antibody (Roche) was used for the antibody reaction. […] The following procedures were also carried out as described above. Phosphorylated protein was confirmed by treatment with 1 U of lambda protein phosphatase (New England Biolabs, Ipswich, Mass.) at 30° C. for 2 h.

F3374 = experiment: western blot of F3374 after siF3374 oligonucleotide; settings: HBC4 cells
Source text: (§2) Furthermore, the present inventors used siRNA oligonucleotides (Sigma Aldrich Japan KK, Tokyo, Japan) due to its high transfection efficiency to further verify the knockdown effects of F3374 and AURKB on cell morphology. The sequences targeting each gene were as follows:
(§3) T47D or HBC4 cells (2.5×10^5 cells in 10 cm dish for FACS analysis) cells were transfected with those siRNAs using Lipofectamin RNAiMAX (Invitrogen) in Optimem (Invitrogen) medium according to the instructions of manufacture. Forty-eight hours after transfection, morphological changes of the HBC4 cells were examined by microscopy and by immunocytochemical staining analysis using Alexa Fluor 594 Phalloidin (Molecular Probe).

HBC4 cells = experiment: microscopy of morphological changes after siF3374; settings: vs siEGFP
Source text: as §2, §3

F3374 protein = experiment: western blot of F3374 protein after siAURKB; settings: T47D cells; vs siEGFP
Description: To detect the endogenous F3374 and AURKB proteins in breast cancer cell lines (HBC4, BT-549, HBC5, HBL100, HCC1937, MCF-7, MDA-MB-231, MDA-MB-453, SKBR3, and T47D, and ZR75-1) and human mammary gland epithelial cell (HMEC), cells were lysed in lysis buffer (50 mM Tris-HCl, pH 8.0/150 mM NaCl/0.5% NP-40) including 0.1% protease inhibitor cocktail III (Calbiochem, San Diego, Calif.). The amount of total protein was estimated by protein assay kit (Bio-Rad, Hercules, Calif.), and then proteins were mixed with SDS-sample buffer and boiled before loading at 10% SDS-PAGE gel. After electrophoresis, the proteins were blotted onto nitrocellulose membrane (GE Healthcare). After blocking with blocking solution (4% BlockAce; Dainippon Pharmaceutical. Co., Ltd, Osaka, Japan), membranes blotting proteins were incubated with anti-F3374 polyclonal antibody at 1:100 dilutions or anti-AURKB rabbit polyclonal antibody (abcam, Cambridge, UK) at 1:100 dilutions for detection of endogenous F3374 or AURKB protein. Finally the membrane was incubated with HRP conjugated-secondary antibody and protein-bands were visualized by ECL detection reagents (GE Healthcare). Beta-actin was examined to serve as a loading control. […]

PBK/TOPK [2] = experiment: western blot of PBK/TOPK after nocodazole; settings: T47D; 6 to 18 h
T47D cells = experiment: FACS cell cycle analysis after nocodazole
Description: For PBK/TOPK, the cell cycle of cultured T47D breast cancer cells were synchronized via the treatment with aphidicolin (Sigma-Aldrich) for 16 h, washing 5 times with PBS (−), and addition of fresh culture media to release from cell-cycle arrest. For 15 h (every 3 h) after releasing, cells were collected and fixed with 70% ethanol, and then kept at 4° C. before use. Cells were incubated with 10 mg/mL RNaseI in PBS (−) at 37° C. for 30 min and stained with 50 μg of propidium iodide at room temperature for 30 min. Cell suspensions at each time point were analyzed with FACscan (Becton Dickinson, Franklin Lakes, N.J.).
To collect the G2/M arrested cells, 0.3 μg/mL of nocodazole (Sigma-Aldrich) was treated to culture media for the last 16 hours before collection.

With `CCn1cnc2c(Nc3cccc(Cl)c3)nc(N[C@@H]3CCCC[C@@H]3N)nc21` [CDK1 inhibitor, CGP74514A] the “phosphorylation level of the Rb protein at Ser807 and 811” value (CDK1; 0 to 4 hours) was “decreased phosphorylation level”, the “phosphorylation of PP1α at Thr320” value (CDK1; 0 to 4 hours) was “reduced phosphorylation” and the “phosphorylation of PBK/TOPK induced by G2/M arrest” value (CDK1; 0 to 4 hours after nocodazole 16 hours) was “diminished in time-dependent manner”.
In the case of “m#3: mismatch siRNA with 3-bp replacement in A7322 si-#3, 5′-AATATTCGATCTCTGCCACAC-3′ (SEQ ID NO: 36) (listed as DNA, chemistry not given here)”, the “expression level of A7322” value (A7322) is reported as “no suppressive effect” and the “growth of BT-549 and BT-474 cells” value (BT-549 and BT-474 cells) is reported as “no suppressive effect”.
`C=C1[C@@H](O)[C@@H]2O[C@]3(CC[C@H](/C=C/[C@@H](C)[C@@H]4CC(C)=C[C@@]5(O[C@H](C[C@@](C)(O)C(=O)O)CC[C@H]5O)O4)O3)CC[C@H]2O[C@@H]1[C@@H](O)C[C@H](C)[C@H]1O[C@@]2(CCCCO2)CC[C@H]1C` [OA, okadaic acid] was tested, and the “phosphorylation of PBK/TOPK” value (PBK/TOPK [1]; 100 nM for 9 hours) was “induced” and the “phosphorylation of PBK/TOPK” value (PBK/TOPK [1]; low concentration (less than 100 nM)) was “not”.
In the case of “siF3374: siRNA oligonucleotide 5′-ACUCCUACGUUCUCUAUUA-3′ (SEQ ID NO: 65) targeting F3374 (listed as RNA, chemistry not given here)”, the “knockdown effect at the protein level (F3374)” value (F3374) is reported as “significant knockdown effect”, the “morphological alterations: cell size” value (HBC4 cells) is reported as “enlargement of the size of the cells” and the “morphological alterations: cytokinesis” value (HBC4 cells) is reported as “appearance of the intercellular bridges between two separating-cells”.
“siAURKB: siRNA oligonucleotide 5′-AAGGUGAUGGAGAAUAGCAGU-3′ (SEQ ID NO: 66) targeting AURKB (listed as RNA, chemistry not given here)” was tested, and the “phosphorylated F3374 protein” value (F3374 protein) was “significant decrease” and the “total F3374 protein” value (F3374 protein) was “significant decrease”.
With `COC(=O)Nc1nc2ccc(C(=O)c3cccs3)cc2[nH]1` [nocodazole] the “intensity of high-molecular (phosphorylated) band of endogenous PBK/TOPK” value (PBK/TOPK [2]) was “elevated in a time-dependent manner”, the “proportion of cells at the G2/M phase” value (T47D cells; 6 to 18 h) was “elevated” and the “cells synchronized at G2/M phase” value (T47D cells; treatment for 16 hours) was 61-70%.
